Experimental data: PubChem BioAssay (NCI)
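Dose response: 5 concentrations. Exposure: 48 h. Format: 96-well plates. Endpoint: linear interpolation; highest concentration if not reached. TGI marks complete inhibition of growth.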

Tests used:
Test in all cases: growth of human tumour cells (NCI), 48 h
[1] = tested on: K-562 leukemia
[2] = tested on: A549 NSCLC
[3] = tested on: CAKI-1 renal
[4] = tested on: NCI-H23 lung
[5] = tested on: SNB-19 CNS
[6] = tested on: HS 578T breast

Compound | TGI [1] [µM] | TGI [2] [µM] | TGI [3] [µM] | TGI [4] [µM] | TGI [5] [µM] | TGI [6] [µM]
C=C1C(=O)OC2C3C(=C)[C@@H](OC(C)=O)CC3C(C)=CC(OC(=O)C(C)(OC(C)=O)C(C)OC(C)=O)[C@@H]12 (some centres not stated) | 32.6 | 70.4 | 23.2 | 38.3 | > 100 | > 100
O=C(NNC(=S)NCc1ccccc1)c1csc(NC(=S)NC2CCCCC2)n1 |  | > 100 | > 100 | > 100 | > 100 | 
CCN(CC)C(=S)SC(C(=O)Nc1nnc(-c2ccccc2)o1)c1ccccc1 (configuration not stated) | > 100 | 35.7 | 50 | 34.2 | > 100 | > 100
CC(C)C[C@H](NC(=O)[C@H](Cc1ccc(F)cc1)NC(=O)c1ccccn1)B(O)O | > 100 | 0.165 | < 0.0124 | < 0.01 | > 33.4 | < 0.0121
CC(C)(C)OC(=O)NCCNCCNc1ccccc1 | > 100 | > 100 | > 100 | > 100 | > 100 | 
OC(c1ccc2c(c1)OCO2)c1ccc2c(c1)OCO2 | > 100 | > 100 | > 100 | > 100 | > 100 | > 100
O=C1NNC2NC(=O)C3(NN2C1=O)c1ccccc1-c1ccccc13 (configuration not stated) | > 100 | > 100 | > 100 | > 100 | > 100 | > 100
CCN(CC)c1ccc(/C=C/C(=O)c2cc(C(C)(C)C)c(O)c(C(C)(C)C)c2)cc1 | > 100 | > 100 | > 100 | > 100 | > 100 | > 39.9
COC(=O)C1Cc2ccc3c(c2C1=O)CCCC3 (configuration not stated) | > 100 | > 100 | > 100 | > 100 | > 100 | > 100
NC(=O)SCCC(N)C(=O)O (configuration not stated) | > 100 | > 100 | > 100 | > 100 | > 100 | > 100
O=C1c2ccccc2C2C1C(c1ccccc1)C1(Cc3ccccc3C1=O)C2c1ccccc1 (configuration not stated) | > 100 | > 100 |  | > 100 | > 100 | > 100
Cn1c2ccccc2c(=O)c2cccc(C(=O)NCC(=O)O)c21 | > 100 | > 100 |  | > 100 | > 100 | > 100
COc1nc2c(c(=O)n1C)N=C(c1ccccc1)[C@H](C(CC(=O)c1ccccc1)c1ccccc1)C(c1ccccc1)N2 (some centres not stated) | > 100 | > 100 | > 100 | > 100 | > 100 | 
C#Cc1cc(Br)c(OC(=O)C(C)(C)C)c(-c2cc(C#C)cc(Br)c2OC(=O)C(C)(C)C)c1 | > 100 | > 100 | > 100 | > 100 | > 100 | > 100
CCOc1ccccc1-c1nc2c(s1)C(=O)c1ccccc1C2=O | 32.4 | 36.9 | 26.7 | 31 | 65.3 | 62.3
CN1C(=O)C(O)CC1c1ccccc1C(F)(F)F (configuration not stated) |  | > 100 | > 100 | > 100 | > 100 | 
COC(=O)C(COC(=O)/C=C/c1ccc(OC(C)=O)c(OC(C)=O)c1)NC(=O)/C=C/c1ccc(OC(C)=O)c(OC(C)=O)c1 (configuration not stated) | > 100 | > 100 | 59.4 | 73.4 | > 100 | > 100
CC(=O)OCC(C)(COC(C)=O)N1C(=O)C2C3c4ccccc4C(c4ccccc43)C2C1=O (configuration not stated) | > 100 | > 100 | > 100 | > 100 | > 100 | > 100
O=c1[nH]nc(-c2ccccc2)n1/N=C/c1ccccc1Cl | > 100 | > 100 | > 100 | 87.7 | > 100 | > 100
ONC1=Nc2ccccc2C(=S)N2CSCC12 (configuration not stated) | > 100 | > 100 | > 100 |  | > 100 | > 100
O=C1NC(N2CCCCC2)=N/C1=C\c1ccc(Cl)cc1 |  | > 100 | > 100 | > 100 | > 100 | > 100
O=C1OC(C2(O)OC(=O)c3ccccc32)c2ccccc21 (configuration not stated) |  | > 100 | > 100 | > 100 | > 100 | > 100
O=C(CCc1ccccc1)n1cccc1CO | > 100 | > 100 | > 100 | > 100 | > 100 | > 100
COC(=O)[C@H]1COC(=O)N1 | > 100 | > 100 | > 100 | > 100 | > 100 | > 100
c1ccc(C(=NCCC2CNc3ccccc32)c2ccccc2)cc1 (configuration not stated) | > 100 | > 100 | > 100 | > 100 | > 100 | > 100
CN(C(=O)C1=CCC2(CC1)OCCO2)c1ccccc1I | > 100 | > 100 | > 100 | > 100 | > 100 | 
COc1cc2c(cc1O)C1(Cc3ccc4c(c3C1=O)OCO4)N(C)CC2 (configuration not stated) | > 100 | > 100 | > 100 | > 100 | > 100 | > 100
CC1CN(c2cc3c(cc2F)c(=O)c(C(=O)O)cn3-c2ccc(F)cn2)CC(C)N1 (configuration not stated) | > 100 | > 100 | > 100 | > 100 | > 100 | > 100
COc1ccc(N=NC(=Nc2ccc(Cl)cc2)c2ccc(N(CCC#N)CCC#N)cc2)cc1 | > 100 | > 100 | > 100 | > 100 | > 100 | > 100
O=c1c(-c2ccccc2F)coc2cc(F)ccc12 |  | > 100 | > 100 | > 100 | > 100 | > 100
